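Five concentrations, 48 hours, 96-well plates. Abbreviation: GI50, concentration required for 50% inhibition of growth. At the TGI there is no net growth.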

What all share (assay): NCI tumour cell line growth inhibition, 48 h
Assay [1] deals with UACC-257 melanoma.
The test system of assay [2] is HT29 colon.
In assay [3] the test system is SR leukemia.
Assay [4] concerns NCI/ADR-RES ovarian.
Assay [5] deals with NCI-H460 lung.
Assay [6] has as its system RPMI-8226 leukemia.
Assay [7] concerns SK-MEL-2 melanoma.
For assay [8], the system named is MOLT-4 leukemia.
The subject of assay [9] is NCI-H23 lung.
Assay [10] relates to A549 NSCLC.

With `CCN(CC)CCN1CC(O)=C(c2nc(-c3ccc(Cl)cc3)cs2)C1=N`, the GI50 in assay [1] was 1.82 µM; in [2] it was 2 µM; in assay [3], 1.43 µM; in assay [4], 9.12 µM; in assay [5], 2.04 µM; in assay [6], 2 µM. Also, the GI50 was 16.9 µM in assay [7], 1.87 µM in [8], 7.39 µM in assay [9] and 3.62 µM in [10]. The TGI in [1] is 3.51 µM; in assay [2], 6.27 µM; in [3], 3.7 µM; in assay [4], > 100 µM; in assay [5], 4.29 µM; in assay [6], 5.09 µM. Moreover, the TGI is > 100 µM in assay [7], 4.42 µM in assay [8], 49.9 µM in assay [9] and 17.8 µM in [10].
For `C[N+](C)(C)CC1CCCC(C[N+](C)(C)C)C1=O` (stereo not given), the TGI in assay [1] stood at 1.48 µM; in assay [2] it was 14.2 µM; in [3], 0.479 µM; in assay [4], 7.27 µM; in assay [5] it was 39.2 µM; in [6], 0.256 µM. Further, the TGI amounted to 3.29 µM in assay [7], 3.85 µM in assay [8], 5.84 µM in assay [9] and 40.6 µM in assay [10].
On to `COC(=O)Nc1nc2ccc(Oc3ccc(NC(=O)Nc4ccccc4)cc3)cc2[nH]1`, for which the GI50 was 0.167 µM in [1]; 0.0937 µM in assay [2]; 0.0744 µM in [3]; 0.391 µM in [4]; 0.129 µM in assay [5]; 0.748 µM in [6]. In addition, the GI50 in assay [7] was 0.109 µM; in assay [8], 0.184 µM; in [9], 0.545 µM; in assay [10] it was 0.533 µM. Besides, the TGI in assay [1] is > 14.8 µM; in [2], 1.01 µM; in [3] it was > 8.46 µM; in assay [4], > 25 µM; in assay [5], 2.71 µM; in [6], > 10 µM. Further, the TGI in assay [7] is 2.19 µM; in [8] it was > 10.3 µM; in assay [9], > 12.3 µM; in assay [10], 5.32 µM.
With `COc1cc(C2=NN(C(C)=O)C(c3ccc(OC(C)=O)cc3OC(C)=O)O2)c(OC(C)=O)c2ccccc12` (stereo not given), the GI50 in [1] is 0.981 µM; in assay [2] it was 4.48 µM; in assay [3], 0.537 µM; in assay [4], 0.542 µM; in assay [5], 1.15 µM; in assay [6], 2.74 µM. The GI50 was 10.8 µM in [7], 0.44 µM in assay [8], 2.55 µM in [9] and 1.57 µM in [10]. Moreover, the TGI was 6.86 µM in assay [1]; 41.3 µM in assay [2]; > 27.4 µM in [3]; > 51.8 µM in assay [4]; > 33.4 µM in assay [5]; 14.7 µM in [6]. The TGI in [7] was 49.4 µM; in [8] it was 8.5 µM; in assay [9], > 78.9 µM; in [10], 28.4 µM.
`CC1CN1CC(O)C(O)CN1CC1C` (stereo not given): the GI50 was 3.12 µM in [1]; 2.87 µM in [2]; 0.053 µM in [3]; 1.24 µM in assay [4]; 0.319 µM in [5]; 8.86 µM in assay [6]. The GI50 in assay [7] was 8.58 µM; in assay [8] it was 0.234 µM; in [9] it was 2.37 µM; in assay [10], 2.08 µM. In addition, the TGI in assay [1] was 23.3 µM; in [2], 19.7 µM; in assay [3] it was > 100 µM; in [4], > 87.1 µM; in [5], 13 µM; in [6], > 88.6 µM. The TGI is > 64.2 µM in assay [7], 3.15 µM in assay [8], > 75.4 µM in assay [9] and 33 µM in [10].
Regarding `CCS(=O)(=O)c1ccc(OC)c(Nc2ncc(-c3cccc(OC)c3)o2)c1`, the GI50 in [1] is > 22.2 µM; in assay [2], 10.8 µM; in assay [3], 9.33 µM; in assay [4], 9.38 µM; in [5] it was 11.9 µM; in [6], > 16.5 µM. Moreover, the GI50 was 13.2 µM in [7], 13.5 µM in assay [8], 8.3 µM in [9] and 8.75 µM in assay [10]. Besides, the TGI is > 25 µM in assay [1]; > 25 µM in assay [2]; 24.3 µM in [3]; > 25 µM in assay [4]; > 25 µM in [5]; > 25 µM in assay [6]. Further, the TGI in assay [7], in assay [8], in assay [9] and in assay [10] was > 25 µM each time.
On to `CCOC(=O)c1c(CN2CCN(c3ccccc3)CC2)n(-c2ccccc2)c2cc(Br)c(O)cc12`, for which the GI50 in [1] was 18.2 µM; in assay [2], 11.8 µM; in assay [3], 3.82 µM; in [4], 12.4 µM; in assay [5], 3.61 µM; in assay [6] it was 3.61 µM. The GI50 in [7] is 17.2 µM; in assay [8], 3.56 µM; in assay [9], 14.9 µM; in assay [10] it was 3.58 µM. The TGI in assay [1] is 50.9 µM; in assay [2] it was 32.5 µM; in [3], > 100 µM; in [4], 41.7 µM; in [5] it was 21.3 µM; in assay [6], > 100 µM. The TGI is 36.2 µM in assay [7], 29.5 µM in [8], 38.3 µM in [9] and > 100 µM in [10].
Take `CCCCN=C(N)c1ccc(OCCSCCOc2ccc(C(N)=NCCCC)cc2)cc1`: the GI50 in assay [1] is 4.4 µM; in assay [2] it was 2.79 µM; in assay [3], 3.13 µM; in assay [4], > 100 µM; in assay [5], 3.17 µM; in assay [6], 2.71 µM. Moreover, the GI50 is 5.36 µM in assay [7], 20.9 µM in [8], 2.87 µM in [9] and 4.47 µM in assay [10]. The TGI in [1] is 71.8 µM; in [2], > 100 µM; in [3], 53.7 µM; in assay [4], > 100 µM; in assay [5], > 100 µM; in assay [6], 53.4 µM. In addition, the TGI in assay [7] was 21.9 µM; in assay [8], > 100 µM; in assay [9], > 100 µM; in [10], > 100 µM.

Values taken from PubChem BioAssay (NCI).
